Measured values from the supplement of paper PMC10307832.

Tests used:
Test in all cases: relative viability (nuclei count vs DMSO), 5 days (fraction); higher = more cells survive
[1] = compound: C[C@]1(O)C[C@@H](c2nc(-c3ccc4ccc(-c5ccccc5)nc4c3)c3c(N)nccn32)C1 [Linsitinib] + CS(=O)(=O)CCNCc1ccc(-c2ccc3ncnc(Nc4ccc(OCc5cccc(F)c5)c(Cl)c4)c3c2)o1 [Lapatinib] (partner 2 µM)
Outline: (§1)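 Relative viability was taken as the ratio of nuclei in treated wells to nuclei in vehicle wells. Lung cancer cell lines in 1536-well plates received compounds by pin tool one day after seeding, either one drug alone or a fixed anchor-drug dose plus five library-drug doses (not always all listed) in √10 steps. Nuclei were counted on 4× images after 5 days of treatment, and values are medians of duplicate plates.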

[2] = compound: C[C@]1(O)C[C@@H](c2nc(-c3ccc4ccc(-c5ccccc5)nc4c3)c3c(N)nccn32)C1 [Linsitinib] + Nc1nc2[nH]cc(CCc3ccc(C(=O)N[C@@H](CCC(=O)O)C(=O)O)cc3)c2c(=O)[nH]1 [Pemetrexed] (partner 0.2 µM)
Outline: as §1

[3] = compound: C[C@]1(O)C[C@@H](c2nc(-c3ccc4ccc(-c5ccccc5)nc4c3)c3c(N)nccn32)C1 [Linsitinib] + O=C(CCCCCCC(=O)Nc1ccccc1)NO [Vorinostat] (partner 1 µM)
Outline: as §1

[4] = compound: Cc1ccc(C(=O)N(CCCN)[C@@H](c2nc3cc(Cl)ccc3c(=O)n2Cc2ccccc2)C(C)C)cc1 [Ispinesib] + CCNC(=O)c1noc(-c2cc(C(C)C)c(O)cc2O)c1-c1ccc(CN2CCOCC2)cc1 [Luminespib] (partner 0.01 µM)
Outline: as §1

Cell Line	relative viability ([1]; first compound 0.01 µM)	relative viability ([1]; first compound 0.03162 µM)	relative viability ([1]; first compound 0.1 µM)	relative viability ([1]; first compound 0.3162 µM)	relative viability ([1]; first compound 1 µM)	relative viability ([2]; first compound 0.01 µM)	relative viability ([2]; first compound 0.03162 µM)	relative viability ([2]; first compound 0.1 µM)	relative viability ([2]; first compound 1 µM)	relative viability ([3]; first compound 0.01 µM)	relative viability ([3]; first compound 0.03162 µM)	relative viability ([3]; first compound 0.1 µM)	relative viability ([3]; first compound 1 µM)	relative viability ([4]; first compound 0.001 µM)	relative viability ([4]; first compound 0.003162 µM)	relative viability ([4]; first compound 0.01 µM)	relative viability ([4]; first compound 0.03162 µM)	relative viability ([4]; first compound 0.1 µM)	relative viability ([2]; first compound 0.3162 µM)	relative viability ([3]; first compound 0.3162 µM)
LU99A	0.953	0.951	0.952	0.377	0.57	0.161	0.144	0.193	0.198	0.492	0.466	0.524	0.291	0.242	0.333	0.247	0.199	0.218		
NCI-H650	0.701	0.926	0.871		0.646	0.878	1.05	0.923	0.739	0.438	0.359	0.432	0.394	0.739	0.836	0.808	0.621	0.783		
NCI-H2347	0.821	0.998	0.969	0.461	0.772	0.418	0.445	0.409	0.416	0.677	0.583	0.591	0.57	0.375	0.503	0.624	0.359	0.469	0.399	0.444
HARA	0.598	0.746	0.739	0.671	0.329	0.258	0.198	0.22	0.239	0.51	0.513	0.648	0.351	1.12	0.617	0.788	0.64	0.233		0.347
NCI-H2228	0.978	0.839	1.08	0.663	0.8	0.398	0.297	0.357	0.331	0.593	0.409	0.664	0.476	0.121	0.14	0.228	0.127	0.159	0.311	0.465
EKVX	0.212	0.262	0.231	0.23	0.161		0.243	0.425	0.36	0.753	0.785	0.798	0.496	0.837	0.875	0.937	0.829	0.563	0.352	0.481
HCC-827	0.208	0.197	0.17		0.224	0.149	0.24	0.32	0.262	0.207	0.829	0.799	0.639	0.69	0.536	0.876	0.482	0.529		
NCI-H1755	1.01	1.02	1.04	0.54	0.876	0.388	0.401	0.653	0.398	0.741	0.773	0.821	0.727	0.292	0.641	0.423	0.315	0.441	0.234	0.58
